Measured values reported in ChEMBL document CHEMBL1201862, “PubChem BioAssay data set” (2004).
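48-hour exposure; five concentrations; linearly interpolated endpoints. GI50: concentration for 50% inhibition of growth.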 Active and inactive are the calls of the source. Rule as the data show it: active = GI50 up to about 1.1 µM and inactive = higher.

Columns and labels:
Test in all cases: NCI tumour cell line growth inhibition, 48 h
[1] = system: HOP-18
[2] = system: DMS-114
[3] = system: DLD-1
[4] = system: LXFL 529
[5] = system: RXF 631
[6] = system: KM-20L2
[7] = system: DMS-273
[8] = system: XF498
[9] = system: SNB-78

Measured: GI50

CCn1cc(/C=C/C(C)c2cn(CC)c(=O)[nH]c2=O)c(=O)[nH]c1=O (configuration not stated)
inactive: [1] > 100 µM | [2] > 100 µM | [3] > 100 µM | [4] > 100 µM | [5] > 100 µM | [6] > 100 µM | [7] > 100 µM

O=C(NCCOCCO)c1ccc(O)cc1
inactive: [1] > 100 µM | [2] > 100 µM | [3] > 100 µM | [4] > 100 µM | [8] 55 µM | [6] > 100 µM | [7] > 100 µM

CC1(C)CCC(Sc2ccccc2)O1 (configuration not stated)
inactive: [2] > 100 µM | [3] > 100 µM | [9] > 100 µM | [4] > 100 µM | [8] > 100 µM | [6] > 100 µM | [7] > 100 µM

COCCCCCC(=O)CP(=O)(OC)OC
inactive: [1] > 100 µM | [2] > 100 µM | [3] > 100 µM | [9] > 100 µM | [4] > 100 µM | [8] > 79.6 µM | [6] > 100 µM | [7] > 100 µM

Cc1cc(C)nc(NS(=O)(=O)c2ccc(Nc3c4ccc(Cl)cc4nc4c(C(=O)Nc5ccc(S(N)(=O)=O)cc5)cccc34)cc2)n1
inactive: [2] 22.8 µM | [3] 13.8 µM | [9] 49.9 µM | [4] 23.8 µM | [8] 18.4 µM | [5] 18.2 µM | [6] 18.6 µM

O=C1c2ccccc2C2(O)Nc3c(ccc4ccccc34)C12O (configuration not stated)
inactive: [1] > 100 µM | [2] 60 µM | [3] > 100 µM | [9] > 100 µM | [4] 67.8 µM | [6] > 100 µM | [7] > 100 µM

CCN(CC)CC(C(C)=O)C(c1ccccc1)c1c(O)c2ccccc2oc1=O (configuration not stated)
inactive: [1] > 100 µM | [2] > 100 µM | [3] > 100 µM | [9] > 100 µM | [4] > 100 µM | [8] > 100 µM | [6] > 100 µM | [7] > 100 µM

O=C(CCc1nnc2s/c(=C\c3ccccc3)c(=O)n12)Nc1cc(Cl)ccc1Cl
inactive: [1] > 100 µM | [2] > 100 µM | [3] > 100 µM | [9] > 100 µM | [4] > 100 µM | [8] > 100 µM | [5] > 100 µM | [6] > 100 µM | [7] > 100 µM

O=C1OC(/C=C/c2ccccc2)C(=O)C1=O (configuration not stated)
inactive: [1] 23.8 µM | [3] > 100 µM | [4] > 100 µM | [8] > 100 µM | [6] > 100 µM | [7] > 100 µM

CN(C)c1ccc(/C=c2\sc3nc4ccccc4n3c2=O)cc1
inactive: [1] > 100 µM | [2] > 100 µM | [3] > 100 µM | [9] > 100 µM | [4] > 100 µM | [8] > 100 µM | [5] > 100 µM | [6] > 100 µM | [7] > 100 µM

CCCCCCCCCCCCCCCCOC(=O)C(C(=O)OCCCCCCCCCCCCCCCC)[N+](C)(C)CCOC(C)=O
inactive: [1] 16.7 µM | [2] 17.9 µM | [3] 14.2 µM | [9] 19.9 µM | [4] 16.1 µM | [5] 12.5 µM | [6] 18.6 µM | [7] 9.2 µM

c1ccc(/N=C2\c3ccccc3C3=NCCCN32)cc1
inactive: [2] 28.2 µM | [3] 39.2 µM | [9] > 100 µM | [4] 43.3 µM | [8] 85.5 µM | [5] 85.5 µM | [6] 59.2 µM | [7] 36.3 µM

C=CCN(N=O)C(=O)ON1C(=O)CCC1=O
inactive: [1] > 100 µM | [2] > 100 µM | [3] > 100 µM | [9] > 100 µM | [4] > 100 µM | [5] > 100 µM | [6] > 100 µM | [7] > 100 µM

C/C=C1/C=CC2c3[nH]c4ccccc4c3CCN2C1 (configuration not stated)
inactive: [1] 7.11 µM | [2] 296 µM | [3] > 400 µM | [4] > 400 µM | [8] > 400 µM | [5] > 400 µM | [6] > 400 µM | [7] > 400 µM

Cn1nc(-c2ccccc2)c2c(/C=C/c3ccc(F)cc3)onc2c1=O
inactive: [1] 11.3 µM | [3] > 100 µM | [4] > 100 µM | [8] 14.8 µM | [6] > 100 µM | [7] > 100 µM

COc1ccc(C2CCc3cc4c(cc3/C2=N/OC(C)=O)OCO4)cc1OC (configuration not stated)
inactive: [1] 26.7 µM | [2] 10.7 µM | [9] 41.4 µM | [4] 26.4 µM | [8] 18.4 µM | [5] 25.5 µM | [6] 22.3 µM | [7] 24.8 µM

CCSC1(SCC)CC(Cc2ccc(OC)cc2)N(/C=N/C(C)(C)C)C1 (configuration not stated)
inactive: [1] 41.1 µM | [2] 20.1 µM | [3] 33.5 µM | [9] 31.8 µM | [4] 25.3 µM | [8] 18.1 µM | [6] 12.9 µM | [7] 37.4 µM

Cn1c(=O)c(C(c2ccc([N+](=O)[O-])cc2)c2c(O)c3ccccc3n(C)c2=O)cc2ccccc21 (configuration not stated)
inactive: [1] 42.5 µM | [2] 56.2 µM | [3] 36.8 µM | [9] 43.2 µM | [4] 42.2 µM | [8] 55.3 µM | [5] 49.9 µM | [6] 45 µM | [7] 37.2 µM

CCCCC1(OC(=O)CCC(=O)O)CCC2(CCC(C)C(C/C=C(C)/C=C/C(O)C(C)/C=C/C(=O)O)O2)OC1CC/C(C)=C/C(=O)O (configuration not stated)
inactive: [1] 4.58 µM | [2] 2.45 µM | [3] 3.25 µM | [9] 2.55 µM | [4] 1.8 µM | [8] 2.03 µM | [5] 1.93 µM | [6] 10.9 µM | [7] 5.94 µM

Cc1cc(Cl)cc2c1NC(=O)C2=O.O=C(c1ccccc1)C(F)(F)F
inactive: [1] 59.7 µM | [2] 30.7 µM | [3] 60.1 µM | [9] 24.4 µM | [4] 56.1 µM | [8] 30.1 µM | [6] 76 µM | [7] 50.7 µM

CC(C)=CCC/C(C)=C/CC/C(C)=C/CC/C=C(\C)CC/C=C(\C)CCC1SC1(C)C (configuration not stated)
inactive: [1] > 100 µM | [2] 75.7 µM | [3] > 100 µM | [9] > 100 µM | [4] > 100 µM | [6] > 100 µM | [7] > 100 µM

N#CC12CC3(CCC1CCC1(C2)OCCO1)OCCO3 (configuration not stated)
inactive: [1] > 100 µM | [2] > 100 µM | [3] > 100 µM | [9] > 100 µM | [4] > 100 µM | [8] > 100 µM | [5] > 100 µM | [6] > 100 µM | [7] > 100 µM

COC(=O)[C@@H]1C(=O)O[C@@H](c2ccc3c(c2)OCO3)[C@@H]1C(=O)OC.COC(=O)[C@H]1C(=O)O[C@@H](c2ccc3c(c2)OCO3)[C@@H]1C(=O)OC
inactive: [2] > 100 µM | [3] > 100 µM | [9] > 100 µM | [4] > 100 µM | [5] > 100 µM | [6] > 100 µM | [7] > 100 µM

Nc1ccccc1N
inactive: [1] > 100 µM | [3] > 100 µM | [4] > 100 µM | [7] > 100 µM
